Common to all, as to type: cell-based
In experiment [1] the target is T1, alpha2B receptor (Homo sapiens, UniProt P18089).
T1 construct: expressed in transfected cells; host or cells: NIH-3T3 cells
T1 sequence (P18089 1-450): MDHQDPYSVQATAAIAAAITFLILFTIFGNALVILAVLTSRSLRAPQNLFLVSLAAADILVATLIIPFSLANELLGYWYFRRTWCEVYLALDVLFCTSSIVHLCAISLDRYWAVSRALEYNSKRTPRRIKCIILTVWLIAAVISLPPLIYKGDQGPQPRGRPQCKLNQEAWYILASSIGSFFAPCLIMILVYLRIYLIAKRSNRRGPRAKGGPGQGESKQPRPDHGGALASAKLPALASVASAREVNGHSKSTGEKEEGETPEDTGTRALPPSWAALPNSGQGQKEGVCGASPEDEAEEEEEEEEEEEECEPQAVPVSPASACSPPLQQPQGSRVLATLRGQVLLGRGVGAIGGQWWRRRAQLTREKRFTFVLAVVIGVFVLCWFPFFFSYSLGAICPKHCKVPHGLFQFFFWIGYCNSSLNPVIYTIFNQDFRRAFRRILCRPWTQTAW
Nature of the experiment: RSAT assay (Receptor Selection and Amplification Technology), alpha2B. The settings on record: for EC50: RSAT, NIH-3T3 cells cotransfected with receptor and Gq/i5, ND = not determinable at concentrations less than 10 micromolar, read-out: Alpha 2B EC50; for Emax: maximal effect relative to standard full agonist brimonidine (UK14304), read-out: Alpha 2B intrinsic activity (IA), in parentheses. The method, then: (§1) Receptor Selection and Amplification Technology (RSAT) Assay
(§2) The RSAT assay measures a receptor-mediated loss of contact inhibition that results in selective proliferation of receptor-containing cells in a mixed population of confluent cells. The increase in cell number is assessed with an appropriate transfected marker gene such as β-galactosidase, the activity of which can be easily measured in a 96-well format. Receptors that activate the G protein, Gq, elicit this response. Alpha2 receptors, which normally couple to Gi, activate the RSAT response when coexpressed with a hybrid Gq protein that has a Gi receptor recognition domain, called Gq/i5.
NIH-3T3 cells are plated at a density of 2×10^6 cells in 15 cm dishes and maintained in Dulbecco's modified Eagle's medium supplemented with 10% calf serum. One day later, cells are cotransfected by calcium phosphate precipitation with mammalian expression plasmids encoding p-SV-β-galactosidase (5-10 μg), receptor (1-2 μg) and G protein (1-2 μg). 40 μg salmon sperm DNA may also be included in the transfection mixture. Fresh media is added on the following day and 1-2 days later, cells are harvested and frozen in 50 assay aliquots. Cells are thawed and 100 μl added to 100 μl aliquots of various concentrations of drugs in triplicate in 96-well dishes. Incubations continue 72-96 hr at 37° C. After washing with phosphate-buffered saline, β-galactosidase enzyme activity is determined by adding 200 μl of the chromogenic substrate (consisting of 3.5 mM o-nitrophenyl-β-D-galactopyranoside and 0.5% nonidet P-40 in phosphate buffered saline), incubating overnight at 30° C. and measuring optical density at 420 nm. The absorbance is a measure of enzyme activity, which depends on cell number and reflects a receptor-mediated cell proliferation. The efficacy or intrinsic activity is calculated as a ratio of the maximal effect of the drug to the maximal effect of a standard full agonist for each receptor subtype. Brimonidine, also called UK14304, the chemical structure of which is shown below, is used as the standard agonist for the alpha2A, alpha2B and alpha2C receptors. The EC50 is the concentration at which the drug effect is half of its maximal effect.
EC50 values are nanomolar. ND stands for “not determinable” at concentrations less than 10 micromolar. IA stands for “intrinsic activity.”

Experiment [2] has as its target T2, alpha2C receptor (Homo sapiens, UniProt P18825).
T2 construct: expressed in transfected cells; host or cells: NIH-3T3 cells
T2 sequence (P18825 1-462): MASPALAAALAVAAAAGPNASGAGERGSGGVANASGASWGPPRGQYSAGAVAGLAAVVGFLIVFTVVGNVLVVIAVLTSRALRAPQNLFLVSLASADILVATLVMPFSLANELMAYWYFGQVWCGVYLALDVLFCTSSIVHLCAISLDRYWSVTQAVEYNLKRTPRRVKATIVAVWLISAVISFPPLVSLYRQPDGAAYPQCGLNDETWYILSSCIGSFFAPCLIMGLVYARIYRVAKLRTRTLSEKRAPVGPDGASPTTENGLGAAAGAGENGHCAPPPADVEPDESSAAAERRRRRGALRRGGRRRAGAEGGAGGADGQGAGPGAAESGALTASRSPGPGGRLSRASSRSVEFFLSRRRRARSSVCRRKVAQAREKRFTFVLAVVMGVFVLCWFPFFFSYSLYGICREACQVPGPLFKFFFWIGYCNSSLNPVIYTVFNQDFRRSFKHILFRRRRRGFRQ
Nature of the experiment: RSAT assay (Receptor Selection and Amplification Technology), alpha2C. The settings on record: maximal effect relative to standard full agonist brimonidine (UK14304); read-out: Alpha 2C intrinsic activity (IA), in parentheses. The method, then: as §1, §2
(§3) NIH-3T3 cells are plated at a density of 2×10^6 cells in 15 cm dishes and maintained in Dulbecco's modified Eagle's medium supplemented with 10% calf serum. […] After washing with phosphate-buffered saline, β-galactosidase enzyme activity is determined by adding 200 μl of the chromogenic substrate (consisting of 3.5 mM o-nitrophenyl-β-D-galactopyranoside and 0.5% nonidet P-40 in phosphate buffered saline), incubating overnight at 30° C. and measuring optical density at 420 nm. The absorbance is a measure of enzyme activity, which depends on cell number and reflects a receptor-mediated cell proliferation. […]

The target in experiment [3] is T3, alpha2A receptor (Homo sapiens, UniProt P08913).
T3 construct: expressed in transfected cells; host or cells: NIH-3T3 cells
T3 sequence (P08913 1-465): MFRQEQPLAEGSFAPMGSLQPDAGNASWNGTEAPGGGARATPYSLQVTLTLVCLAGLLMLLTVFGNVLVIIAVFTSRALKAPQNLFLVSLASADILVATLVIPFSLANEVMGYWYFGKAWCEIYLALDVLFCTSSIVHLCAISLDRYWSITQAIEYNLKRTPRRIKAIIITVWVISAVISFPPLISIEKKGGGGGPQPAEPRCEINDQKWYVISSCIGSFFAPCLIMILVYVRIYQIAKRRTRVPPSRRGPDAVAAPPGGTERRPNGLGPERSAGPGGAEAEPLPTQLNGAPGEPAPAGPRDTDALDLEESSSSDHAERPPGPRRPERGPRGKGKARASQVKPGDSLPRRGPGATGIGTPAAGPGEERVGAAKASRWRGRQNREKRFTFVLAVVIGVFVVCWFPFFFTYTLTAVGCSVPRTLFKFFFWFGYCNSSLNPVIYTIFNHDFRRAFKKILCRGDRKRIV
Description: RSAT assay (Receptor Selection and Amplification Technology), alpha2A. The settings on record: read-out: Alpha 2A intrinsic activity (IA), in parentheses. The method, then: as §1, §2, §3

For `c1cnc2c(c1)CCCC2NC1=NCCO1` (centres unmarked), in experiment [1], the EC50 was 545 nM. In addition, the figures for the Emax in experiment [1], in experiment [2] and in experiment [3] were 67%, 22% and 3%, respectively.

On to `c1cnc2c(n1)CCCC2NC1=NCCO1` (centres unmarked), for which, in experiment [1], the EC50 came to 271 nM. For the same compound, the Emax in experiment [1] turned out to be 86%; in experiment [2], 27%; in experiment [3] it was 16%.

For the origin of these results see patent US8486969B2, “Therapeutic compounds” (Allergan, Inc., priority 2007, dated 2013).
